According to ChEMBL document CHEMBL1131576, “7-Oxo-4,5,6,7-tetrahydro-1H-pyrazolo[3,4-c]pyridines as novel inhibitors of human eosinophil phosphodiesterase” (J Med Chem, 1998):

Experiments:
U-937 = experiment: Arbitary maximal response for cAMP elevation from baseline level was evaluated in Human U-937 cells; format: functional, cell-based
Phosphodiesterase 4 = Phosphodiesterase 4 (Homo sapiens, UniProt P27815+Q08499+Q07343+Q08493); experiment: Inhibitory activity on human eosinophil phosphodiesterase 4.; format: protein assay
Monkey [1] = experiment: Percent Eosinophil inhibition in monkeys at 10 mg/kg oral dose; format: functional; conditions: Cercopithecidae, in Primates
Monkey [2] = experiment: Percent cytokine TNF inhibition in monkeys at 10 mg/kg oral dose; format: functional; conditions: Cercopithecidae, in Primates
Monkey [3] = experiment: Percent cytokine IL-8 inhibition in monkeys at 10 mg/kg oral dose; format: functional; conditions: Cercopithecidae, in Primates
Cavia porcellus = experiment: Effect on Aerosolized Antigen Induced Airway Obstruction (AAIAO) in guinea pig after oral dose; format: functional
[4] = Compound tested for plasma levels in monkeys dosed at 10 mg/kg, po; format: ADME, organism-based; set-up: dose 10 mg/kg, route oral; conditions: monkey, in vivo, read-out: Plasma level
[5] = target: cGMP-specific 3',5'-cyclic phosphodiesterase (Homo sapiens) (UniProt O76074); experiment: Inhibition of Phosphodiesterase 5 from human corpus cavernosum at 1 uM
[6] = target: cGMP-specific 3',5'-cyclic phosphodiesterase (Homo sapiens) (UniProt O76074); experiment: Inhibition of Phosphodiesterase 5 from human corpus cavernosum at 10 uM
Monkey [7] = experiment: Percent cytokine inhibition in monkeys at 10 mg/kg oral dose; format: functional; conditions: Cercopithecidae, in Primates
[8] = target: Phosphodiesterase 3 (Homo sapiens) (UniProt Q14432+Q13370); experiment: Inhibition of PDE3 from human heart at 100 uM; format: protein assay
[9] = target: Phosphodiesterase 1 (Homo sapiens) (UniProt P54750+Q01064+Q14123); experiment: Inhibition of Phosphodiesterase 1 from human cardiac ventricle at 10 uM; format: protein assay

Row | EC50 (U-937) [µM] | IC50 (Phosphodiesterase 4) [µM] | SMILES | further results
1 | 0.5 | 2.24 | CCc1nn(-c2ccc(F)cc2)c2c1CCN(c1ccc(C)cc1)C2=O | –
2 | 0.036 | 0.66 | CCc1nn(C2CCCC2)c2c1CCN(c1ccsc1)C2=O | –
3 | – | 1.64 | CCc1nn(C2CCCC2)c2c1CCN(c1ccccn1)C2=O | –
4 | – | 0.89 | CCc1nn(-c2ccc(F)cc2)c2c1CCN(c1ccccc1C)C2=O | –
5 | 0.036 | 0.42 | CCc1nn(C2CCCC2)c2c1CCN(Cc1ccccc1)C2=O | –
6 | 13 | 84.7 | CCCCc1nn(-c2ccc(F)cc2)c2c1CCN(c1ccccc1)C2=O | –
7 | 1.23 | – | COc1ccc(C2CNC(=O)C2)cc1OC1CCCC1 (stereo not drawn) [ROLIPRAM] | inhibition in vivo at 10 mg/kg (Monkey [1]): 49.4%; inhibition in vivo at 10 mg/kg (Monkey [2]): 33.4%; inhibition in vivo at 10 mg/kg (Monkey [3]): 84%; ED50 (Cavia porcellus): 0.6 mg/kg; concentration [4]: 0.91 µM
8 | 0.041 | 0.039 | CCc1nn(C2CCCC2)c2c1CCN(c1cccc(Cl)c1)C2=O | –
9 | 5.27 | 0.46 | CCc1nn(C2CCS(=O)(=O)C2)c2c1CCN(c1cccc(OC)c1)C2=O (stereo not drawn) | –
10 | – | 0.49 | CCc1nn(-c2ccc(F)cc2)c2c1CCN(c1cccc(OC)c1)C2=O | –
11 | 0.98 | 0.048 | CCc1nn(C2CCCCC2)c2c1CCN(c1cccc(OC)c1)C2=O | –
12 | 11 | 84.9 | CCCc1nn(-c2ccc(F)cc2)c2c1CCN(c1ccc(OC)cc1)C2=O | –
13 | 0.017 | 0.16 | CCc1nn(C2CCCC2)c2c1CCN(c1cccnc1)C2=O | –
14 | 0.33 | 0.44 | CCc1nn(C2CCCC2)c2c1CCN(c1ccccc1C)C2=O | inhibition in vivo at 10 mg/kg (Monkey [1]): 55.2%; inhibition [5]: 7%; inhibition [6]: 21%; ED50 (Cavia porcellus): 2 mg/kg; inhibition in vivo at 10 mg/kg (Monkey [7]): 82.1%; inhibition [8]: 9%; concentration [4]: 0.28 µM; inhibition [9]: 8%
15 | 0.78 | 0.27 | CCc1nn(-c2ccc(F)cc2)c2c1CCN(c1cccc(C)c1)C2=O | –
16 | 0.52 | 0.15 | CCc1nn(C2CCC2)c2c1CCN(c1cccc(OC)c1)C2=O | –
17 | 0.29 | 0.67 | COc1ccc([C@H](Cc2ccncc2)c2ccccc2)cc1OC1CCCC1 [CDP840] | –
18 | 3.21 | 1.08 | CCc1nn(-c2ccc(F)cc2)c2c1CCN(c1ccccc1OC)C2=O | –
19 | 0.07 | 0.16 | CCc1nn(C2CCCC2)c2c1CCN(c1ccccc1)C2=O | –
20 | – | 15.7 | COc1ccc(N2CCc3c(C)nn(-c4ccc(F)cc4)c3C2=O)cc1 | –
21 | 0.88 | 1.64 | CCc1nn(-c2ccc(F)cc2)c2c1CCN(c1ccccc1)C2=O | inhibition [5]: 1%; inhibition [6]: 50%; ED50 (Cavia porcellus): 4.3 mg/kg; inhibition [8]: 33%; inhibition [9]: 2%
22 | 0.001 | 0.063 | CCc1nn(C2CCCC2)c2c1CCN(c1cccs1)C2=O | –
23 | 6.25 | 6.04 | CCc1nn(-c2ccc(F)cc2)c2c1CCN(c1ccc(OC)cc1)C2=O | –
24 | 0.33 | 0.034 | CCc1nn(C2CCCC2)c2c1CCN(c1cccc(OC)c1)C2=O | –
25 | 3.63 | – | COc1ccc([C@]2(C#N)CC[C@@H](C(=O)O)CC2)cc1OC1CCCC1 [CILOMILAST] | –

Row | SMILES | EC50 (U-937) [µM] | IC50 (Phosphodiesterase 4) [µM] | further results
26 | COc1ccc(C(=O)Nc2c(Cl)cncc2Cl)cc1OC1CCCC1 | 0.04 | – | –
